Results: patent publication US20050180991A1, “Hypotensive agent and food” (priority 2004, published 2005)

Tests used:
[1] = system: SHR (spontaneously hypertensive rat); conditions: SHR rats, observed once daily at dosing
[2] = system: SHR (spontaneously hypertensive rat); assay: Systolic blood pressure by the tail cuff method in SHR rats; format: in vivo; conditions: mean±SD; for Blood pressure (mmHg) Before dosing: n=10, baseline in acclimatization period; for Blood pressure (mmHg) 2nd dosing week: n=10, oral once daily, CM6271 300 mg/kg, hydralazine 5 mg/kg, 23 to 25 hours after dosing in 2nd dosing week, *p<0.05, **p<0.01 vs. control
Description: (§1) For statistical analysis of blood pressure, pulse rate and body weight data, Dunnett test was used to make intergroup comparisons, and the level of significance was less than 5% (p<0.05) and less than 1% (p<0.01).
(§2) Systolic blood pressure and pulse rate were measured in all animals by the tail cuff method using an automated noninvasive sphygmomanometer (BP-98A, Softron Co., Ltd.) once during the acclimatization period and 23 to 25 hours after dosing in the second dosing week. Figures in Table 2 represent mean±SD.

[3] = Body weight of SHR rats during daily oral dosing; format: in vivo, rat; conditions: n=10, oral once daily, CM6271 300 mg/kg, hydralazine 5 mg/kg
Description: Figures in Table 1 represent mean±SD (standard deviation).

[4] = system: SHR (spontaneously hypertensive rat); assay: Pulse rate by the tail cuff method in SHR rats; format: in vivo; conditions: mean±SD; for Pulse rate (bpm) Before dosing: n=10, baseline in acclimatization period; for Pulse rate (bpm) 2nd dosing week: n=10, oral once daily, CM6271 300 mg/kg, hydralazine 5 mg/kg, 23 to 25 hours after dosing in 2nd dosing week
Description: as §1, §2

NNc1nncc2ccccc12 [Hydralazine, hydralazine]
General observations [1]: Soft stools were observed in some animals | Blood pressure (mmHg) Before dosing [2]: 164.9 ± 8.8 mmHg | Blood pressure (mmHg) Before dosing ([2]; listed as hydralazine): 164.9 mmHg | Blood pressure (mmHg) 2nd dosing week [2]: 138.4 ± 12.1** mmHg | Blood pressure (mmHg) 2nd dosing week ([2]; listed as hydralazine): 138.4 mmHg | Body weight (g) Day 15 ([3]; Day 15, mean±SD): 261.5 ± 13.7 g | Body weight (g) Day 22 ([3]; Day 22, mean±SD): 276.1 ± 12.8 g | Pulse rate (bpm) Before dosing [4]: 401.3 ± 19.4 bpm | Pulse rate (bpm) Before dosing ([4]; listed as hydralazine): 401.3 bpm | Pulse rate (bpm) 2nd dosing week [4]: 423.6 ± 31.9 bpm | Pulse rate (bpm) 2nd dosing week ([4]; listed as hydralazine): 423.6 bpm
